According to ChEMBL document CHEMBL3108668, “Antitumor activity of jujuboside B and the underlying mechanism via induction of apoptosis and autophagy” (J Nat Prod, 2014):
The source made the active and inactive calls. The rule behind the calls is not given here.

Tests used:
HCT-116 = test: Induction of autophagy in human HCT116 cells assessed as increase in LC3-2 level at 50 uM after 24 hrs by Western blotting analysis; assay type: functional, cell-based
AGS = test: Induction of apoptosis in human AGS cells assessed as caspase-8 activation at 25 to 150 uM after 24 hrs by Western blotting analysis; assay type: functional, cell-based

CC(C)=C[C@H]1C[C@](C)(O)[C@@H]2[C@H]3CC[C@@H]4[C@@]5(C)CC[C@H](O[C@@H]6OC[C@H](O)[C@H](O[C@@H]7O[C@H](CO)[C@@H](O)[C@H](O)[C@H]7O[C@@H]7OC[C@@H](O)[C@H](O)[C@H]7O)[C@H]6O[C@@H]6O[C@@H](C)[C@H](O)[C@@H](O)[C@H]6O)C(C)(C)[C@@H]5CC[C@@]4(C)[C@@]34CO[C@@]2(C4)O1
Activity (HCT-116): Active
Activity (AGS): Active
